Measurements from publication PMC7588595, “Small-molecule active pharmaceutical ingredients of approved cancer therapeutics inhibit human aspartate/asparagine-β-hydroxylase” (Bioorganic & Medicinal Chemistry, 2020).
Structures can show the parent of a compound that is named as a salt. Where two headings read alike, the source gives them in different places.

Target: T1, human AspH (His6-AspH315–758) (Homo sapiens, UniProt Q12797)
T1 construct: N-Terminally His6-tagged human AspH315–758 (His6-AspH315–758) was produced in Escherichia coli BL21 (DE3) cells; made in house; host or cells: Escherichia coli BL21 (DE3), pET-28a(+) vector
T1 sequence (Q12797 315-758): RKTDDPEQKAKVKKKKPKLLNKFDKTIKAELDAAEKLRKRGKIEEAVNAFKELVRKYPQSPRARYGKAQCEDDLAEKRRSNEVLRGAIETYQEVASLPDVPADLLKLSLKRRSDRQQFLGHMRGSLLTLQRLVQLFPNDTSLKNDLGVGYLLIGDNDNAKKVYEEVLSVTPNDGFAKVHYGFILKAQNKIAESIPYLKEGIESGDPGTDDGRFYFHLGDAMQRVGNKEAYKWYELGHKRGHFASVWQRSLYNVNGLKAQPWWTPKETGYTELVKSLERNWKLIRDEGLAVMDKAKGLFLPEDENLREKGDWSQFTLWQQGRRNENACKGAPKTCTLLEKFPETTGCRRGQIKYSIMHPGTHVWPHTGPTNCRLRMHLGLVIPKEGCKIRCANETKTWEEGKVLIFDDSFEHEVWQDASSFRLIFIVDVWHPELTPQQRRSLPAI
Experiment: SPE-MS AspH inhibition assay (hFX-CP101-119 substrate hydroxylation)
Assay type: biochemical

[1] = AspH-inhibitor screening, 384-well Plate 1
[2] = AspH-inhibitor screening, 384-well Plate 1, substrate conversion
[3] = AspH-inhibitor screening, Plate 1-duplicate
[4] = AspH-inhibitor screening, Plate 1-duplicate, substrate conversion

Row | SMILES | Plate 1 (% inhibition) [1] [%] | Plate 1 (% conversion) [2] [%] | Plate 1-duplicate (% inhibition) [3] [%] | Plate 1-duplicate (% conversion) [4] [%] | Plate 1 (% conversion) [%] | Plate 1-duplicate (% conversion) [%] | Plate 1 (% inhibition) [%] | Plate 1-duplicate (% inhibition) [%]
1 | CN(Cc1cnc2nc(N)nc(N)c2n1)c1ccc(C(=O)N[C@@H](CCC(=O)O)C(=O)O)cc1 [Methotrexate] | 15.11 | 42.77 | 17.38 | 43.42 | – | – | – | –
2 | COC(=O)C[C@](O)(CCCC(C)(C)O)C(=O)O[C@@H]1C(OC)=C[C@]23CCCN2CCc2cc4c(cc2[C@H]13)OCO4 [Homoharringtonine] | 6.00 | 46.98 | 5.43 | 49.35 | – | – | – | –
3 | C[C@]12O[C@H](C[C@]1(O)CO)n1c3ccccc3c3c4c(c5c6ccccc6n2c5c31)CNC4=O [Lestaurtinib] | 20.36 | 40.35 | 16.08 | 44.07 | – | – | – | –
4 | CC(=O)Oc1ccccc1C(=O)O [Aspirin (Acetylsalicylic Acid)] | 8.11 | 46.01 | 6.00 | 49.07 | – | – | – | –
5 | Cl.N[C@@H](Cc1ccc(N(CCCl)CCCl)cc1)C(=O)O [Melphalan hydrochloride] | 8.23 | 45.95 | 3.67 | 50.22 | – | – | – | –
6 | Cn1nnc2c(C(N)=O)ncn2c1=O [Temozolomide] | 5.12 | 47.38 | 8.46 | 47.85 | – | – | – | –
7 | CCc1cc2c(cc1N1CCC(N3CCOCC3)CC1)C(C)(C)c1[nH]c3cc(C#N)ccc3c1C2=O [Alectinib] | -0.39 | 49.93 | 8.49 | 47.83 | – | – | – | –
8 | Cc1ccc(Nc2nccc(N(C)c3ccc4c(C)n(C)nc4c3)n2)cc1S(N)(=O)=O.Cl [Pazopanib hydrochloride] | -0.37 | 49.92 | -28.79 | 66.32 | – | – | – | –
9 | Cl.NC(=O)Nc1cc(-c2cccc(F)c2)sc1C(=O)N[C@H]1CCCNC1 [AZD 7762 hydrochloride] | 14.30 | 43.15 | 4.66 | 49.73 | – | – | – | –
10 | COc1cc2nccc(Oc3ccc(NC(=O)Nc4cc(C)on4)c(Cl)c3)c2cc1OC [AV-951 (Tivozanib)] | 11.01 | 44.66 | 0.70 | 51.69 | – | – | – | –
11 | Nc1nc2[nH]cc(CCc3ccc(C(=O)N[C@@H](CCC(=O)O)C(=O)O)cc3)c2c(=O)[nH]1 [Pemetrexed] | 17.80 | 41.53 | 10.26 | 46.95 | – | – | – | –
12 | COc1ccc(S(=O)(=O)Nc2cccnc2Nc2ccc(O)cc2)cc1 [ABT-751] | 4.88 | 47.50 | 8.62 | 47.77 | – | – | – | –
13 | Cc1cc(Nc2nc(N[C@@H](C)c3ncc(F)cn3)ncc2Cl)n[nH]1 [AZD1480] | -0.12 | 49.81 | 6.11 | 49.01 | – | – | – | –
14 | CC[C@H](CO)Nc1nc(NCc2ccccc2)c2ncn(C(C)C)c2n1 [Roscovitine_Selicilib] | – | – | – | – | 48.67 | 50.17 | – | –
15 | Cn1c(Nc2ccc(C(F)(F)F)cc2)nc2cc(Oc3ccnc(-c4ncc(C(F)(F)F)[nH]4)c3)ccc21 [RAF265] | 38.69 | 31.88 | 34.01 | 35.17 | – | – | – | –
16 | O=P1(NCCCl)OCCCN1CCCl (stereo not shown) [Ifosfamide] | 7.87 | 46.12 | 4.50 | 49.81 | – | – | – | –
17 | Cl.c1ccc(C2CN3CCSC3=N2)cc1 (stereo not shown) [Tetramisole HCl] | – | – | – | – | 46.13 | 48.14 | 7.83 | 7.87
18 | NC(=O)c1ccc(I)c([N+](=O)[O-])c1 [Iniparib (BSI-201, IND-71677)] | 6.32 | 46.83 | 5.00 | 49.56 | – | – | – | –
19 | O=C1c2c(O)ccc(O)c2C(=O)c2c(NCCNCCO)ccc(NCCNCCO)c21 [Mitoxantrone] | -29.89 | 63.55 | -22.19 | 63.05 | – | – | – | –
20 | CNC(=O)c1cc(Oc2ccc(NC(=O)Nc3ccc(Cl)c(C(F)(F)F)c3)c(F)c2)ccn1 [BAY 73-4506_Regorafenib] | 62.82 | 20.74 | 53.45 | 25.53 | – | – | – | –
21 | C[C@@H](Oc1cc(-c2cnn(C3CCNCC3)c2)cnc1N)c1c(Cl)ccc(F)c1Cl [Crizotinib] | -6.35 | 52.68 | -0.27 | 52.18 | – | – | – | –
22 | O=C(NC[C@H](O)CO)c1ccncc1Nc1ccc(I)cc1F [AS703026_Pimasertib] | 12.00 | 44.21 | 9.34 | 47.41 | – | – | – | –
23 | COCCNCc1ccc(-c2cc3nccc(Oc4ccc(NC(=S)NC(=O)Cc5ccc(F)cc5)cc4F)c3s2)nc1 [MGCD-265] | 74.52 | 15.34 | 67.97 | 18.33 | – | – | – | –
24 | CCN(CC)CCCC(C)Nc1c2ccc(Cl)cc2nc2ccc(OC)cc12 (stereo not shown) [Quinacrine HCl] | 11.37 | 44.50 | 8.52 | 47.81 | – | – | – | –
